This note sets out measurements from ChEMBL document CHEMBL3808337, “Rapid Discovery of Pyrido[3,4-d]pyrimidine Inhibitors of Monopolar Spindle Kinase 1 (MPS1) Using a Structure-Based Hybridization Approach” (J Med Chem, 2016).

A short description of data set [1]: Antiproliferative activity against human HCT116 cells assessed as cell viability after 72 hrs by MTT assay. It is filed as functional. The conditions noted are these: HCT-116, 72 h.
Data set [2] concerns the target Serine/threonine-protein kinase PLK1 (Homo sapiens, UniProt P53350). In words: Inhibition of human full length recombinant His-tagged PLK1 expressed in baculovirus by Z'-LYTE assay.
Data set [3] has as its target Mitogen-activated protein kinase 9 (Homo sapiens, UniProt P45984). In words: Inhibition of human full length recombinant His-tagged JNK2 expressed in baculovirus by lanthascreen assay. (In TR-FRET formats the signal depends on donor and acceptor labels being close together.)
A short description of data set [4]: Antiproliferative activity against human SW620 cells assessed as cell viability after 72 hrs by MTT assay. It is filed as functional. The conditions noted are these: SW-620, 72 h.
Another data set concerns the target T1, Cytochrome P450 2A6 (Homo sapiens, UniProt P11509).
T1 sequence (P11509 whole entry): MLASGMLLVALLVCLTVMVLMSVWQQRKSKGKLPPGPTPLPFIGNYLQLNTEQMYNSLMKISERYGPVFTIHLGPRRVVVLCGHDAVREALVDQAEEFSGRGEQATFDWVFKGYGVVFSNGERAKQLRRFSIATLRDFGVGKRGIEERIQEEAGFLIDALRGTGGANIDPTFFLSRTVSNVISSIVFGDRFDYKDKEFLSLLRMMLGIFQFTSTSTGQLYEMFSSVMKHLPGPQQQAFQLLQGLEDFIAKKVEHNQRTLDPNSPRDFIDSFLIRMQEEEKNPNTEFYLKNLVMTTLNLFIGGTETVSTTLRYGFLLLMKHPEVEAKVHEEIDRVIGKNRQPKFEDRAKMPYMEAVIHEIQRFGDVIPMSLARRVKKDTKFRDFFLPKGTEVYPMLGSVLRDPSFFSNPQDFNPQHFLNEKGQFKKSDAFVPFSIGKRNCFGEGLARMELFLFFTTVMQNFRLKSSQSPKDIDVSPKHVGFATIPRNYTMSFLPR
In words: Inhibition of CYP2A6 (unknown origin). It is filed as ADME.

In the next data set the target is T2, Cytochrome P450 1A2 (Homo sapiens, UniProt P05177).
T2 sequence (P05177 whole entry): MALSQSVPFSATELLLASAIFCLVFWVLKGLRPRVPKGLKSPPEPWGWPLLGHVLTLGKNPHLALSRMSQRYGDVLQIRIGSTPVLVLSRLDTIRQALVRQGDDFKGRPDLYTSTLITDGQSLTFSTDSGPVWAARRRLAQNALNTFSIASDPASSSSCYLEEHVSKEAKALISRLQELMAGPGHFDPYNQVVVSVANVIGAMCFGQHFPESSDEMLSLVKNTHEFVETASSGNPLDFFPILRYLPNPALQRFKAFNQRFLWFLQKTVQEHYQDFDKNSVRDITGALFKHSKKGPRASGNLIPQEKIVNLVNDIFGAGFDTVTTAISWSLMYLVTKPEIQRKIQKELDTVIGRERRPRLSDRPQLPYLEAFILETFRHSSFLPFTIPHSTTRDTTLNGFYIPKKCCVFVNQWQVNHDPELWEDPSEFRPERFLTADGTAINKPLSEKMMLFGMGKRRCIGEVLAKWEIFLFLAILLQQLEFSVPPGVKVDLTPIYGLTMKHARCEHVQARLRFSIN
In words: Inhibition of CYP1A2 (unknown origin). Type of data set: ADME. Conditions: human; call rule not given here.

Data set [5] in a line: AUC in Sprague-Dawley rat blood at 5 mg/kg, po after 24 hrs by ESI-LCMS/MS analysis. It is filed as ADME, organism-based. More on the design: time < 24 hr, dose 5 mg/kg, route oral.

The structures appear in SMILES notation. Bounds are passed on as bounds.

Chain of Serine/threonine-protein kinase PLK1 (P53350 whole entry): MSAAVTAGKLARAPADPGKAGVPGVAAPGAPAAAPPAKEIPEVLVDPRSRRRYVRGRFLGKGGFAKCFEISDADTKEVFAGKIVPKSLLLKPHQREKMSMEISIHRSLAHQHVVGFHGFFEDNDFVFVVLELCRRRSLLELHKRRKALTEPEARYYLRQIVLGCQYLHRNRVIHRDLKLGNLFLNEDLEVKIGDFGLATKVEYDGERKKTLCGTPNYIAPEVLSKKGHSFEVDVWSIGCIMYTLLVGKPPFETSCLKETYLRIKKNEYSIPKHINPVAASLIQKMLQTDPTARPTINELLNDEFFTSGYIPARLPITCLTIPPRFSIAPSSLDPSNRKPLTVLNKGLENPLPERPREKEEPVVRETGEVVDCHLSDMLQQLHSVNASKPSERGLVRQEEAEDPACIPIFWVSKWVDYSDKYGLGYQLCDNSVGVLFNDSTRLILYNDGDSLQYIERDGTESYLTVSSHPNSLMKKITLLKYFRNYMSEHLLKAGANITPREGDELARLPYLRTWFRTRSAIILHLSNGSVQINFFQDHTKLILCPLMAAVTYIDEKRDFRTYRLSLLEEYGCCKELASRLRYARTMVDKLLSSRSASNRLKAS
Chain of Mitogen-activated protein kinase 9 (P45984 whole entry): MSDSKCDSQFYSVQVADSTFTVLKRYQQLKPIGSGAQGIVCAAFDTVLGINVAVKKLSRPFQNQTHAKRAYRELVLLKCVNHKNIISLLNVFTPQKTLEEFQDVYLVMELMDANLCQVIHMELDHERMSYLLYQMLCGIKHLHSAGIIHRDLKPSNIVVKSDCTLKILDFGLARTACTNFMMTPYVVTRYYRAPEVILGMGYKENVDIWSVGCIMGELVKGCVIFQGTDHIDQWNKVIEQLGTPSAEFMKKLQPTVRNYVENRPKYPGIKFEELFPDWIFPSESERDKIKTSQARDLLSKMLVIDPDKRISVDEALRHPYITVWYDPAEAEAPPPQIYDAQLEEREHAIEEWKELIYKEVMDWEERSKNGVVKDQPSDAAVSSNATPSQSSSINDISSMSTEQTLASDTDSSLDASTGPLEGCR

Turning to `COc1cc(-c2cnn(C)c2)ccc1Nc1ncc2ccnc(N[C@@H](C)C(C)(C)C)c2n1`, the GI50 (as a rule, the concentration giving 50% growth inhibition) in data set [1] was found to be 160 nM; in data set [4], 65 nM. Also, the IC50 (in general, the concentration at which inhibition is half-maximal) in data set [2] is over 100000 nM; in data set [3], 220 nM. The “inhibition (INH)” value against Cytochrome P450 2A6 and against Cytochrome P450 1A2 was “Not Active” each time. Further, the AUC (commonly the area under the concentration-time curve, a measure of exposure) at 24 h in data set [5] came out at 9.3 µM·h.
